Test results from publication PMC12844335, “Cycloruthenated Imines: A Step into the Nanomolar Region” (Molecules, 2026).
Where two headings read alike, the source gives them in different places.

What was measured:
[1] = system: A2780 human ovarian carcinoma cell line; assay: MTT antiproliferative assay, A2780; format: cell-based; conditions: mean ± SD of three independent experiments, read-out: IC50 (72 h) А2780
Protocol: (§1) The in vitro antiproliferative activity of the synthesized Ru-organometallic compounds and several starting ligands was evaluated against three human cell lines using the MTT assay. We selected a small panel of cell lines that provided insights into the efficacy and potential therapeutic utility of the compounds. The panel includes the A2780 human ovarian carcinoma cell line, which is sensitive to cisplatin, its cisplatin-resistant counterpart, A2780cis, also a non-malignant human embryonic kidney cell line, HEK293. The use of A2780 and A2780cis paired cell lines allowed us to directly assess the ability of the compounds to overcome resistance mechanisms. The inclusion of the HEK293 cell line can give us preliminary indication of selectivity against non-cancerous cells. Cisplatin, a clinically used drug, was used as a positive control in all experiments. All studies were performed in triplicate and repeated in three independent experiments.
(§2) The human A2780 ovarian adenocarcinoma, A2780cis cisplatin resistant ovarian adenocarcinoma, HEK293 human embryonic kidney cell lines were obtained from the European collection of authenticated cell cultures (ECACC; Salisbury, UK). Cells were grown in a RPMI 1640 (Gibco™, Cork, Ireland) cell medium (A2780, A2780cis), or DMEM (Gibco™, Ireland) cell medium (HEK293) supplemented with 10% fetal bovine serum (Gibco™, São Paulo, Brazil). The cells were cultured in an incubator at 37 °C in a humidified 5% CO2 atmosphere and were subcultured two times a week. The antiproliferative activity was studied by MTT assays as published previously [38].

[2] = system: A2780cis cisplatin resistant ovarian adenocarcinoma; assay: MTT antiproliferative assay, A2780cis; format: cell-based, human; conditions: for Rf resistance coefficient: IC50 on A2780cis divided on IC50 on A2780; for IC50: MTT, 72 h incubation, mean ± SD of three independent experiments;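 as to all read-outs here: antiproliferative MTT assay with 72 h exposure on cisplatin-resistant A2780cis versus parent A2780 cells, cisplatin as positive control, triplicate wells in each of three independent experiments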
Protocol: as §1, §2

[3] = system: HEK293 human embryonic kidney cell line; assay: MTT antiproliferative assay, HEK293; format: cell-based; conditions: for Selectivity Index, SI: IC50 on HEK293 divided on IC50 on A2780; for IC50: MTT, 72 h incubation, mean ± SD of three independent experiments;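 as to all read-outs here: cells grown at 37 °C under humidified 5% CO2, cisplatin run alongside as positive control, each test in triplicate wells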
Protocol: as §1, §2

[4] = Homo sapiens, A2780, 72 h incubation

IC50 [1, 4] [µM]	IC50 ([2]; Homo sapiens, A2780cis) [µM]	Compound	IC50 ([1]; 72 h incubation) [µM]	Rf resistance coefficient [2]	Selectivity Index, SI [3]	IC50 [3] [µM]	IC50 ([3]; Homo sapiens, HEK293) [µM]	IC50 [2] [µM]
–	–	N.N.[Cl][Pt][Cl] [Cisplatin, reference compound]	2.64 ± 0.35	5.9	8.3	22	–	–
> 200	> 100	Fc1ccc(/N=C/c2ccccc2)cc1 [Compound 1b]	–	–	–	–	21.6	–
42.1	> 100	CCOC(=O)c1ccc(/N=C/c2ccccc2)cc1 [Compound 1g]	–	–	–	–	25.4	–
–	–	C1=[N+](c2ccccc2)[Ru-4]23([c]4ccccc41)([n+]1ccccc1-c1cccc[n+]12)[n+]1ccccc1-c1cccc[n+]13.F[P-](F)(F)(F)(F)F [Compound 3a, Bis(2,2′-bipiridine)[N-((phenyl-κC^2)methyliden]aniline-κN]ruthenium(II) hexafluorophosphate]	0.033 ± 0.007	0.9	1.6	0.053 ± 0.004	–	0.03 ± 0.01
–	–	F[P-](F)(F)(F)(F)F.Fc1ccc([N+]2=Cc3cccc[c]3[Ru-4]234([n+]2ccccc2-c2cccc[n+]23)[n+]2ccccc2-c2cccc[n+]24)cc1 [Compound 3b, Bis(2,2′-bipiridine)[N-((phenyl-κC^2)methyliden]-4-fluoroaniline-κN]ruthenium(II) hexafluorophosphate]	0.09 ± 0.03	2.8	1.1	0.1 ± 0.03	–	0.25 ± 0.06
–	–	Cc1ccc([N+]2=Cc3cccc[c]3[Ru-4]234([n+]2ccccc2-c2cccc[n+]23)[n+]2ccccc2-c2cccc[n+]24)cc1.F[P-](F)(F)(F)(F)F [Compound 3c, Bis(2,2′-bipiridine)[N-((phenyl-κC^2)methyliden]-4-methylaniline-κN]ruthenium(II) hexafluorophosphate]	0.07 ± 0.006	1.7	1.0	0.07 ± 0.01	–	0.12 ± 0.01
–	–	CCc1ccc([N+]2=Cc3cccc[c]3[Ru-4]234([n+]2ccccc2-c2cccc[n+]23)[n+]2ccccc2-c2cccc[n+]24)cc1.F[P-](F)(F)(F)(F)F [Compound 3d, Bis(2,2′-bipiridine)[N-((phenyl-κC^2)methyliden]-4-ethylaniline-κN]ruthenium(II) hexafluorophosphate]	0.045 ± 0.005	3.3	1.8	0.08 ± 0.01	–	0.15 ± 0.01
–	–	CC(C)(C)c1ccc([N+]2=Cc3cccc[c]3[Ru-4]234([n+]2ccccc2-c2cccc[n+]23)[n+]2ccccc2-c2cccc[n+]24)cc1.F[P-](F)(F)(F)(F)F [Compound 3e, Bis(2,2′-bipiridine)[N-((phenyl-κC^2)methyliden]-4-(tert-butyl)aniline-κN]ruthenium(II) hexafluorophosphate]	0.07 ± 0.03	2.4	1.0	0.068 ± 0.006	–	0.17 ± 0.03
–	–	COc1ccc([N+]2=Cc3cccc[c]3[Ru-4]234([n+]2ccccc2-c2cccc[n+]23)[n+]2ccccc2-c2cccc[n+]24)cc1.F[P-](F)(F)(F)(F)F [Compound 3f, Bis(2,2′-bipiridine)[N-((phenyl-κC^2)methyliden]-4-methoxyaniline-κN]ruthenium(II) hexafluorophosphate]	0.065 ± 0.004	1.8	1.0	0.064 ± 0.007	–	0.12 ± 0.04
–	–	CCOC(=O)c1ccc([N+]2=Cc3cccc[c]3[Ru-4]234([n+]2ccccc2-c2cccc[n+]23)[n+]2ccccc2-c2cccc[n+]24)cc1.F[P-](F)(F)(F)(F)F [Compound 3g, Bis(2,2′-bipiridine)[N-((phenyl-κC^2)methyliden]-4-ethoxycarbonylaniline-κN]ruthenium(II) hexafluorophosphate]	0.1 ± 0.02	2.3	1.4	0.14 ± 0.02	–	0.23 ± 0.02
–	–	F[P-](F)(F)(F)(F)F.O=[N+]([O-])c1ccc([N+]2=Cc3cccc[c]3[Ru-4]234([n+]2ccccc2-c2cccc[n+]23)[n+]2ccccc2-c2cccc[n+]24)cc1 [Compound 3h, Bis(2,2′-bipiridine)[N-((phenyl-κC^2)methyliden]-4-nitroaniline-κN]ruthenium(II) hexafluorophosphate]	0.25 ± 0.03	3.0	1.5	0.37 ± 0.08	–	0.76 ± 0.08
–	–	FC(F)(F)c1ccc([N+]2=Cc3cccc[c]3[Ru-4]234([n+]2ccccc2-c2cccc[n+]23)[n+]2ccccc2-c2cccc[n+]24)cc1.F[P-](F)(F)(F)(F)F [Compound 3i, Bis(2,2′-bipiridine)[N-((phenyl-κC^2)methyliden]-4-(trifluoromethyl)aniline-κN]ruthenium(II) hexafluorophosphate]	0.08 ± 0.01	3.0	1.3	0.107 ± 0.008	–	0.24 ± 0.02
–	–	F[P-](F)(F)(F)(F)F.Fc1ccc([N+]2=Cc3scc[c]3[Ru-4]234([n+]2ccccc2-c2cccc[n+]23)[n+]2ccccc2-c2cccc[n+]24)cc1 [Compound 3j, Bis(2,2′-bipiridine)[N-((thiophene-2-yl-κC^2)methyliden]-4-fluoroaniline-κN]ruthenium(II) hexafluorophosphate]	0.043 ± 0.003	2.1	1.4	0.06 ± 0.01	–	0.091 ± 0.009
–	–	Cc1ccc([N+]2=Cc3scc[c]3[Ru-4]234([n+]2ccccc2-c2cccc[n+]23)[n+]2ccccc2-c2cccc[n+]24)cc1.F[P-](F)(F)(F)(F)F [Compound 3k, Bis(2,2′-bipiridine)[N-((thiophene-2-yl-κC^2)methyliden]-4-methylaniline-κN]ruthenium(II) hexafluorophosphate]	0.03 ± 0.002	0.3	2.3	0.07 ± 0.03	–	0.01 ± 0.0004
–	–	COc1ccc([N+]2=Cc3scc[c]3[Ru-4]234([n+]2ccccc2-c2cccc[n+]23)[n+]2ccccc2-c2cccc[n+]24)cc1.F[P-](F)(F)(F)(F)F [Compound 3l, Bis(2,2′-bipiridine)[N-((thiophene-2-yl-κC^2)methyliden]-4-methoxyaniline-κN]ruthenium(II) hexafluorophosphate]	0.039 ± 0.003	1.0	1.0	0.04 ± 0.01	–	0.039 ± 0.01
–	–	CCOC(=O)c1ccc([N+]2=Cc3scc[c]3[Ru-4]234([n+]2ccccc2-c2cccc[n+]23)[n+]2ccccc2-c2cccc[n+]24)cc1.F[P-](F)(F)(F)(F)F [Compound 3m, Bis(2,2′-bipiridine)[N-((thiophene-2-yl-κC^2)methyliden]-4-ethoxycarbonylaniline-κN]ruthenium(II) hexafluorophosphate]	0.057 ± 0.02	1.5	2.5	0.14 ± 0.01	–	0.084 ± 0.012
–	–	F[P-](F)(F)(F)(F)F.O=[N+]([O-])c1ccc([N+]2=Cc3scc[c]3[Ru-4]234([n+]2ccccc2-c2cccc[n+]23)[n+]2ccccc2-c2cccc[n+]24)cc1 [Compound 3n, Bis(2,2′-bipiridine)[N-((thiophene-2-yl-κC^2)methyliden]-4-nitroaniline-κN]ruthenium(II) hexafluorophosphate]	0.27 ± 0.004	3.6	2.0	0.53 ± 0.03	–	0.96 ± 0.1
–	–	FC(F)(F)c1ccc([N+]2=Cc3scc[c]3[Ru-4]234([n+]2ccccc2-c2cccc[n+]23)[n+]2ccccc2-c2cccc[n+]24)cc1.F[P-](F)(F)(F)(F)F [Compound 3o, Bis(2,2′-bipiridine)[N-((thiophene-2-yl-κC^2)methyliden]-4-(trifluoromethyl)aniline-κN]ruthenium(II) hexafluorophosphate]	0.096 ± 0.003	–	1.7	0.16 ± 0.03	–	0.15 ± 0.005
